How the values were obtained:
Assay in all cases: relative viability (nuclei count vs DMSO), 5 days (fraction); higher = more cells survive
[1] = compound: NCC(=O)Nc1ccc(-n2nc(C(F)(F)F)cc2-c2ccc3c(ccc4ccccc43)c2)cc1 + CS(=O)(=O)N1CCN(Cc2cc3nc(-c4cccc5[nH]ncc45)nc(N4CCOCC4)c3s2)CC1 [Pictilisib] (partner 1 µM)
Outline: (§1)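 Lung cancer cell lines, seeded in 1536-well plates, were treated the following day by pin tool with a single drug or with five library-drug doses (not always all listed) in √10 steps on top of a fixed anchor-drug dose. Cells were fixed and nuclei stained in one step after 5 days, and nuclei were counted. Relative viability is the nuclei count for treated wells divided by that for vehicle wells, reported as medians of duplicate plates.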

kb NB 142-70 + OSI-027 = compound: C1CSC2=C(C(=O)N1)SC3=C2C=C(C=C3)O [kb NB 142-70] + COc1cccc2cc(-c3nc([C@H]4CC[C@H](C(=O)O)CC4)n4ncnc(N)c34)[nH]c12 [OSI-027] (partner 0.5 µM)
Outline: as §1

[2] = compound: NCC(=O)Nc1ccc(-n2nc(C(F)(F)F)cc2-c2ccc3c(ccc4ccccc43)c2)cc1 + CC1(C)CCC(c2ccc(Cl)cc2)=C(CN2CCN(c3ccc(C(=O)NS(=O)(=O)c4ccc(N[C@H](CCN5CCOCC5)CSc5ccccc5)c(S(=O)(=O)C(F)(F)F)c4)cc3)CC2)C1 [Navitoclax] (partner 0.5 µM)
Outline: as §1

[3] = compound: NCC(=O)Nc1ccc(-n2nc(C(F)(F)F)cc2-c2ccc3c(ccc4ccccc43)c2)cc1 + C[C@]1(O)C[C@@H](c2nc(-c3ccc4ccc(-c5ccccc5)nc4c3)c3c(N)nccn32)C1 [Linsitinib] (partner 1 µM)
Outline: as §1

| Cell Line | relative viability ([1]; first compound 0.02 µM) | relative viability ([1]; first compound 0.06325 µM) | relative viability ([1]; first compound 0.2 µM) | relative viability ([1]; first compound 0.6325 µM) | relative viability ([1]; first compound 2 µM) | relative viability (kb NB 142-70 + OSI-027; first compound 0.1 µM) | relative viability (kb NB 142-70 + OSI-027; first compound 1 µM) | relative viability (kb NB 142-70 + OSI-027; first compound 3.162 µM) | relative viability ([2]; first compound 0.02 µM) | relative viability ([2]; first compound 0.06325 µM) | relative viability ([2]; first compound 0.2 µM) | relative viability ([2]; first compound 0.6325 µM) | relative viability ([2]; first compound 2 µM) | relative viability ([3]; first compound 0.02 µM) | relative viability ([3]; first compound 0.06325 µM) | relative viability ([3]; first compound 0.2 µM) | relative viability ([3]; first compound 0.6325 µM) | relative viability ([3]; first compound 2 µM) |
| --- | --- | --- | --- | --- | --- | --- | --- | --- | --- | --- | --- | --- | --- | --- | --- | --- | --- | --- |
| ChaGo-K-1 | 0.617 | 0.784 | 0.394 | 0.676 | 1.04 | 0.631 | 0.543 | 0.488 | 0.931 | 1.06 | 0.636 | 0.939 | 1.19 | – | – | – | – | – |
| EBC-1 | 0.324 | 0.37 | 0.434 | 0.36 | 0.404 | – | – | – | 0.451 | 0.427 | 0.554 | 0.456 | 0.435 | 0.888 | 0.856 | 0.892 | 0.899 | 0.895 |
| EKVX | 0.531 | 0.493 | 0.466 | 0.45 | 0.531 | 0.707 | 0.675 | 0.788 | 0.902 | 0.969 | 1.07 | 0.971 | 1.03 | 1.04 | 1.06 | 0.987 | 1.01 | 1.11 |
| EMC-BAC-2 | 0.509 | 0.558 | 0.558 | 0.545 | 0.506 | 0.361 | 0.422 | 0.338 | 1.14 | 1.19 | 1.26 | 1.17 | 1.13 | 0.86 | 0.848 | 0.853 | 0.81 | 0.821 |
| EPLC-272H | 0.28 | 0.378 | 0.285 | 0.344 | 0.319 | 0.278 | 0.243 | 0.187 | 1.25 | 1.07 | 1.15 | 1 | 1.09 | 1.38 | 1.06 | 1.18 | 1.22 | 1.18 |
| H3255 | 0.553 | 0.527 | 0.493 | 0.467 | 0.513 | 0.606 | 0.603 | 0.554 | 0.481 | 0.578 | 0.594 | 0.482 | 0.457 | 0.916 | 0.945 | 0.958 | 0.961 | 0.919 |
| HARA | 0.418 | 0.355 | 0.486 | 0.568 | 0.559 | 0.57 | 0.479 | 0.234 | 1.24 | 1.14 | 1.15 | 1.16 | 1.15 | 0.935 | 1.01 | 1.18 | 0.965 | 0.935 |
| HCC-15 | 0.705 | 0.773 | 0.8 | 0.747 | 0.743 | 0.698 | 0.703 | 0.516 | 0.746 | 0.731 | 0.716 | 0.716 | 0.693 | 0.865 | 0.871 | 0.897 | 0.891 | 0.944 |
| HCC-44 | 0.5 | 0.638 | 0.633 | 0.684 | 0.659 | 0.701 | 0.439 | 0.685 | 0.866 | 0.942 | 1.02 | 0.958 | 0.944 | 0.648 | 0.688 | 0.697 | 0.632 | 0.652 |
